Structures can show the parent of a compound that is named as a salt.
Assays:
[1] = system: rat fetal retinal nerve cells in culture; experiment: Death of rat fetal retinal nerve cells in culture induced by glutamate addition (trypan blue dye exclusion); type: cell-based; conditions: 10 min, then 1 h drug-free, average
Experimental: (1) The action of the α1 receptor blocker on the death of rat fetal retinal nerve cells in culture as induced by glutamate addition
Retinal cells were taken out of a rat fetus (age of E18 days) and isolated, then cultured in an Eagle's basal culture medium containing 10% bovine fetus serum on a polyethylene imine-coated plastic cover slip for 7 days (37° C., 5% CO2/95% air). On the eighth day and thereafter, the cells were cultured in an Eagle's basal culture medium containing 10% horse serum. On the sixth day of the cultivation, cytosine arabinoside (10 μM) was added to suppress the growth of non-neuronal cells. On the eleventh day of the cultivation, the cells were cultured in a serum-free Eagle's basal culture medium supplemented with glutamate (1 mM) and an a, receptor blocker, for 10 minutes. Then, the cells were transferred to a serum-free Eagle's basic culture medium with no content of glutamate and an α1 receptor blocker, and cultured for one hour. Subsequently, toxicity was determined by the trypan blue dye exclusion method. Specifically, the cells were stained with 1.5% trypan blue solution for 10 minutes, fixed in 10% neutral formalin solution and rinsed with physiological saline. Subsequently, the cells were counted with a phase contrast microscope. The cells stained with trypan blue were defined as dead cells, while the cells never stained were defined as live cells. Based on the rate of the live cells to the total cells (200 or more), the survival rate of the culture cells was determined. A group with the addition of 1 mM glutamate alone and a group with the addition of both 1 mM glutamate and an α1 receptor blocker were defined as “1 mM glutamate single-addition group” and “group of 1 mM glutamate+α1 receptor blocker addition”, respectively. […] At this experiment, bunazosin hydrochloride, prazosin hydrochloride, terazosin hydrochloride and naftopidil hydrochloride were used as such α1 receptor blockers.

[2] = system: rat fetal retinal nerve cells in culture; experiment: Death of rat fetal retinal nerve cells in culture induced by serum elimination (trypan blue dye exclusion; TUNEL method); type: cell-based; parameters: dose or concentration left out as unconfirmed; conditions: serum elimination + test compound, 24 hours, average
Experimental: (2) The action of the a, receptor blocker on the death of rat fetal retinal nerve cells in culture as induced by serum elimination
Retinal cells were taken out of a rat fetus (age of E18 days) and isolated, then cultured in an Eagle's basal culture medium containing 10% bovine fetus serum on a polylysine-coated glass cover slip for 7 days (37° C., 5% CO2/95% air). On the eighth day and thereafter, the cells were cultured in an Eagle's basal culture medium containing 10% horse serum. On the sixth day of the cultivation, cytosine arabinoside (10 μM) was added to suppress the growth of non-neuronal cells. […] Subsequently, toxicity was determined by the trypan blue dye exclusion method. Specifically, the cells were stained with 1.5% trypan blue solution for 10 minutes, fixed in 10% neutral formalin solution and rinsed with physiological saline. Subsequently, the cells were counted with a phase contrast microscope. […] Based on the rate of the live cells to the total cells (200 or more), the survival rate of the culture cells was determined. Using the TUNEL method, additionally, the TUNEL-positive cells (apoptosis cells) increasing due to the serum elimination and the TUNEL-negative cells (live cells) were counted, to calculate the rate of the TUNEL-positive cells to the total cells. […]

[3] = 1 mM glutamate + 0.1 μM test compound
[4] = 1 mM glutamate + 10 μM test compound

For `COc1cc2nc(N3CCN(C(=O)C4CCCO4)CC3)nc(N)c2cc1OC` (stereo not shown) [terazosin HCl, terazosin hydrochloride], the “Survival rate (%) of retinal nerve cells in culture” value (shortened to “Survival rate (%)”) ([1]; 1 mM glutamate + 0.01 μM test compound) was 69.8% and the “Survival rate (%)” value [1, 3] was 70.7%.

`COc1ccccc1N1CCN(CC(O)COc2cccc3ccccc23)CC1` (stereo not shown) [naftopidil HCl, naftopidil hydrochloride] was tested, and the “Survival rate (%)” value [1, 3] was 59.2% and the “Survival rate (%)” value [1, 4] was 68.9%.

`COc1cc2nc(N3CCN(C(=O)c4ccco4)CC3)nc(N)c2cc1OC` [prazosin HCl, prazosin hydrochloride] was tested, and the “Survival rate (%)” value ([1]; 1 mM glutamate + 1 μM test compound) was 65.2% and the “Survival rate (%)” value [1, 4] was 67.1%.

With `CCCC(=O)N1CCCN(c2nc(N)c3cc(OC)c(OC)cc3n2)CC1` [bunazosin HCl, bunazosin hydrochloride] the “Survival rate (%)” value [1, 4] was 55.2%, the “Survival rate (%)” value ([1]; 1 mM glutamate + 100 μM test compound) was 55.9% and the “Rate (%) of TUNEL-positive cells” value ([2]; TUNEL method) was 13%. For the same compound, the “Survival rate (%)” value [2] was 80%.

— patent US20040192699A1, “Optic nerve protecting agents containing alpha1 receptor blocker as active ingredient” (Santen Pharmaceutical Co., Ltd., priority 2001, published 2004)
